Measurements: patent US20210017607A1, “Methods of Predicting Responsiveness to Cancer Therapies” (The University of Chicago, priority 2019, published 2021)
Values after ≈ are worked out from the molar mass of the structure shown. Read-outs that look alike come from different tables or passages of the source. One block for each molecule: values may come before it.

How the values were obtained:
[1] = system: PTEN/p53-deficient GEMM tumors; test: PTEN/p53-deficient GEMM in vivo immune profiling; set-up: species or system mouse; settings: for CD4 and CD8 T-cell infiltration / Gr-MDSC and Tregs: copanlisib 14 mg/kg/day every alternate day, 4 weeks
Description: FIGS. 48A and 48B. […] PTEN/p53-deficient GEMM mice with established tumors were treated with DMXAA every other day for 14 days. Tumors were harvested and subjected to flow cytometry for detection of the indicated markers. (48A) CD8 infiltration; (48B) M1/M2 ratio of F4/80^+ cells where M1 are defined as MHC-II^+ and M2 cells are MHC-II^−. The frequency of Gr-MDSCs (Ly6C^−Ly6G^+) and surface expression of V-domain Ig suppressor of T cell activation (VISTA) and PD-L1 on Gr-MDSCs are shown.
FIGS. 71A and 71B. […] PTEN/p53-deficient GEMM mice (n=2/group) with established tumors were treated with copanlisib (14 mg/kg/day, every alternate day) for 4 weeks. Tumors were collected and analyzed for changes in global immune infiltrates, shown clockwise from twelve o'clock: CD4+, CD8+, CD19+, F4/80+, CD11c+, Mo-MDSC, Gr-MDSC, neutrophils (71A) and Treg frequency (71B) by flow cytometry. n=2 mice per arm.
Flow Cytometry. Murine tumors: Murine tumors were processed into single cell suspensions via gentle mechanical dissociation in 6 well plates containing 1 mL of 10% RPMI media supplemented with 10% fetal bovine serum, 1% penicillin-streptomycin and 2% L-glutamine. Cell suspensions were centrifuged at 500×g for 5 minutes at 4° C. and were passed through a 70-micron mesh, prior to re-suspension in FACS buffer (1×PBS containing 0.5% FBS and 0.01% sodium azide). For the stain, one million cells resuspended in 1×FACS buffer, were incubated with titrated concentrations of anti-mouse antibodies (Biolegend®), namely, CD45, CD11b, CD11c, CD19, F480,Ly6G, Ly6C, PD-L1, VISTA, I-A^e/IA^b, H-2K^b, CD3, CD4, CD8, 4-1BB, ICOS, and PD-1. Incubation with antibodies was done at 4° C. for 30-40 minutes. Following staining, cells were washed twice with 1× FACS buffer and fixed with 300 microliters of 4% paraformaldehye (Fisher Scientific®). Intracellular stains were done following fixation and permeabilization by staining with anti-mouse FOXP3 (Biolegend®) as per manufacturer's protocol. Analysis of cellular stains were done using BD instrument LSR 4-15 Fortessa™. Data files collected using BDFACSDIVA software were analyzed using FlowJo® software (Tree Star).

[2] = IC90 concentrations stated for in vitro/ex vivo drug treatments; settings: for IC90: read-out: IC90 concentration
[3] = system: ID8 ovarian cancer cells; test: ID8 cells in vitro STING pathway activation (western, ImageStream, ELISA); format: cell-based, mouse; settings: for STING pathway activation within ID8-PTEN^−/− cells / IFNB1 levels in combination with STING agonist DMXAA, ID8-PTEN^−/− cells: 36 hours; for IFNB1 levels in combination with STING agonist DMXAA, ID8-PTEN^−/− cells: ELISA
Description: FIGS. 56A and 56B. […] (56A) PTEN-proficient (PTEN^+/+) and deficient (PTEN^−/−) ID8 ovarian cancer cells were treated with DMXAA (50 μg/mL) for 0, 1, 6, 12, 24 and 36 hours. Nuclear extracts were probed for localization of p-IRF3 and p-NF-kB, markers of STING pathway activation. n=1 independent experiment. (56B) Wild-type (PTEN^+/+) and PTEN-deficient (PTEN^−/−) Myc-CAP (prostate) and ID8 (ovarian) cancer cells were treated with DMXAA (50 μg/mL) for 36 hours. The supernatants were analyzed by ELISA for IFN-β1 release. n=3 independent experiments.
FIGS. 57A-57C. […] PTEN-proficient (PTEN+/+) and deficient (PTEN−/−) ID8 ovarian cancer cells were treated with DMXAA (50 μg/mL) for 0, 12, 24 and 36 hours. (57A) The nuclear localization of p-IRF3 and p-NFkB was analyzed by ImageStream. The overlap of the two generates a white color that scores for nuclear localization of pIRF3. (57B) Graphical representation of nuclear localization of pIRF3 and p-NF-kB at 12, 24, and 36 hours after DMXAA treatment, relative to untreated groups in ID8 wild-type and PTEN^−/− cells. n=3 independent experiments.
FIGS. 58A and 58B. […] (58A) PTEN-proficient (PTEN^+/+) and deficient (PTEN^−/−) ID8 ovarian cancer cells were treated with IC90 concentrations of pan-PI3K inhibitors, either copanlisib (100 nM) or BKM120 (1000 nM) for 36 hours in presence or absence of STING agonists, DMXAA (50 μg/mL, 1 hour at the end of experiment). The activation status of both PI3K and STING signaling pathways were probed with the indicated antibodies by western blotting. n=2 independent experiments. (58B) Cells were treated as described in (58A), with the exception that concomitant DMXAA treatment was carried out for 36 hours. The supernatants were analyzed by ELISA for IFN-β1 release. n=3 independent experiments.
Cytokine Array/IFNβ1 ELISA. Supernatants from untreated or drug treated cancer cell lines and bone marrow derived macrophages were collected at 36 hours and spun down at 2000×g for 5 min at 4° C. to remove cellular debris. These clear supernatants were processed for detection of Type I Interferon by ELISA (LEGEND MAX™ Mouse IFNβ1 ELISA, Biolegend®) or for determination of a panel of cytokines/chemokines using LEGENDplex™ array (Mouse Anti-Virus Response Panel, Biolegend®) as per instructions in protocol provided.
Western blotting. RIPA buffer (Boston BioProducts) supplemented with protease (Roche®) and HALT phosphatase inhibitor cocktail (Thermo Scientific®) was used for preparation of total cell lysates. For western blotting, the following antibodies were used from Cell Signaling Technology®: Polyclonal rabbit anti-mouse-, phospho-AKT, total AKT, c-GAS, STING, phospho-IRF3, total IRF3, phospho-TBK1, total TBK1, PTEN, phospho NF-kB, total NF-kB, p53, lamin B1, β-actin, alpha-tubulin, and GAPDH. Images of scanned blots were processed using ADOBE Photoshop.
Image Stream Analysis. PTEN-proficient and deficient ID8 ovarian cancer cells were treated with DMXAA (50 ug/mL) for 0, 12, 24, and 36 hours. After termination at endpoints, cells were stained with primary antibodies—anti-mouse p-IRF3 (Cell Signaling Technology®), p-NFkB (Cell Signaling Technology®), followed by incubation with flurochrome tagged secondary antibodies and DAPI. Images of nuclear localization of p-IRF3 and p-NF-kB within single cells were acquired using ImageStreamg®^x Mark II (Amnis®) and data obtained was analyzed using IDEAS® software.

[4] = system: B6-Myc (STING^hi) tumors; test: B6-Myc syngeneic tumor growth; format: in vivo, mouse; settings: immunocompetent syngeneic mice
From the text: Tumor volume curves for duration of treatment are shown. […] Data are represented relative to CD45+ immune cells.
Tumor volume curves for duration of treatment are shown.

[5] = DMXAA every other day for 14 days
[6] = FIG. 38, Myc-CAP-PTEN+/+ and PTEN−/− tumor suspensions
[7] = FIG. 50, Myc-CAP-PTEN^−/− tumor suspensions
[8] = FIG. 58, ID8 ovarian cancer cells

SMILES: Cc1ccc2c(=O)c3cccc(CC(=O)O)c3oc2c1C [DMXAA, 5,6-Dimethylxanthenone-4-acetic Acid]
CD8 T cell infiltration [1, 5]: increases CD8 T cell infiltration | myeloid immunosuppression [1, 5]: relieves myeloid immunosuppression | MDSC infiltration ([1]; DMXAA, PTEN/p53 GEMM mice): decreased MDSC infiltration | VISTA and PD-L1 checkpoint expression on MDSCs ([1]; DMXAA, PTEN/p53 GEMM mice): reduction | myeloid reprogramming and Type I interferon production within the TME ([1]; Myc-CAP-PTEN knockout and PTEN/p53-deficient GEMM tumors): myeloid reprogramming and Type I interferon production | TIL exhaustion markers ([1]; after DMXAA): decreased 4-1BB, decreased ICOS and increased PD-1 | IC90 concentration [2, 6]: 50 µg/mL (≈ 177 µM) | IC90 concentration [2, 7]: 50 µg/mL (≈ 177 µM) | STING pathway activation after PTEN knockdown ([3]; DMXAA 50 μg/mL): abrogates STING pathway activation | IRF3 translocation to the nucleus after PTEN knockdown ([3]; DMXAA 50 μg/mL, 0-36 hours): abolishes IRF3 translocation to the nucleus | tumor growth response [4]: phenocopied

IC90 [2, 7]: 500 nM | IC90 [2, 8]: 100 nM | IC90 ([2]; Myc-CAP-PTEN^−/− cells in vitro (FIG. 35)): 100 nM
SMILES: COc1c(OCCCN2CCOCC2)ccc2c1N=C(NC(=O)c1cnc(N)nc1)N1CCN=C21 [copanlisib]
CD4 and CD8 T-cell infiltration [1]: striking increase | Gr-MDSC and Tregs [1]: depletion | CD4 and CD8 T-cell infiltration ([1]; listed as Copanlisib): increases CD4 and CD8 T-cell infiltration | Gr-MDSC and Tregs ([1]; listed as Copanlisib): decreases Gr-MDSC and Tregs | STING pathway activation within ID8-PTEN^−/− cells [3]: partially restore STING pathway activation | IFNB1 levels in combination with STING agonist DMXAA, ID8-PTEN^−/− cells [3]: unable to rescue IFNB1 levels

SMILES: Nc1cc(C(F)(F)F)c(-c2cc(N3CCOCC3)nc(N3CCOCC3)n2)cn1 [buparlisib]
IC90 [2, 6]: 1000 nM | IC90 [2, 8]: 1000 nM | STING pathway activation within ID8-PTEN^−/− cells [3]: partially restore STING pathway activation | IFNB1 levels in combination with STING agonist DMXAA, ID8-PTEN^−/− cells [3]: unable to rescue IFNB1 levels

IC90 [2, 6]: 500 nM
SMILES: CNCc1ccc(-c2[nH]c3cc(F)cc4c3c2CCNC4=O)cc1 [rucaparib]
tumor growth response [4]: de novo resistance
